“And” between values parts separate entries of the source, which are not always exact repeats. Equal entries are not always repeated. Ends that are not written are not given here. HPMA copolymer = HPMA copolymer made by RAFT copolymerization of HPMA with N-(3-aminopropyl)methacrylamide (APMA), bearing maleimide groups for grafting

The test system of one data set is 4T1 cells. The data set is described as follows: Wound healing assay. Type of data set: cell-based, murine. The following applies: stimulated 4T1 cells; individual replicates, n = 3. As for the experimental part: Wound healing assay and transwell migration and invasion assay were conducted to investigate in vitro metastasis inhibition. For the wound healing assay, 4T1 cells (5 × 10^5 cells) were cultured in 12-well plates (NEST Biotechnology) as monolayer with more than 90% coverage. Sterile 200 μL pipette tips were used to scrape off the cells, generating a linear cell-free area in the middle of the well. Subsequently, cells were washed by PBS to remove debris. In the stimulated group, 4T1 cells were stimulated with CXCL12 (100 ng/mL) for 1 h. […] In the P-BS-CM1 → P-CM2 group, 4T1 cells underwent consecutive treatment with P-BS-CM1 for 1 h and P-CM2 for 1 h before CXCL12 stimulation (1 mg/mL BS equivalence, CM1:CM2, 1:1 mol%). Images of the wound were recorded by a microscope at 0 h and 24 h after CXCL12 stimulation, and the wound healing rate was calculated using Image J software. For the transwell migration and invasion assay, 4T1 cells (5 × 10^5 cells) were seeded in the non-coated upper chamber (Millipore, 8 μm) or GelNest™ matrigel (NEST Biotechnology) pre-coated upper chamber. The cells underwent the same treatment conditions as wound healing assay. After 24 h of treatment, migrated or invaded cells across the membrane were stained with 0.1% crystal violet, imaged by microscope, and quantified by absorbance at 570 nm after dissolution.

A further data set deals with MMP-9 and TGF-β. The data set is described as follows: Immunofluorescence of MMP-9 and TGF-β in tumor tissues. Type of data set: in vivo, female BALB/c mice. On the procedure:
To investigate the epithelial-mesenchymal transition process in tumor tissues, immunofluorescent staining of E-cadherin, vimentin, MMP-9, and TGF-β, along with flow cytometry analysis of E-cadherin and vimentin, were applied. For immunofluorescent staining of E-cadherin and vimentin, tumor slices were stained with CoraLite® Plus 647 anti-mouse CD324 (E-cadherin, 1:300 dilution) and anti-vimentin mouse monoclonal antibody (1:500 dilution) at 4 °C overnight, followed by staining with goat anti-mouse IgG H&L Alexa Fluor® 488 (1:1000 dilution). For flow cytometry analysis of E-cadherin and vimentin, single-cell suspensions of tumor tissues were stained with CoraLite® Plus 647 anti-mouse CD324 (E-cadherin, 1:300 dilution) or sequentially stained with anti-vimentin recombinant rabbit monoclonal antibody and goat anti-rabbit IgG H&L Alexa Fluor® 647 (1:1000 dilution), respectively. For immunofluorescent staining of MMP-9 and TGF-β, tumor slices were separately stained with MMP9 Rabbit pAb (1:500 dilution) or anti-TGF beta 1 recombinant rabbit monoclonal antibody (1:500 dilution), followed by staining with goat anti-rabbit IgG H&L Alexa Fluor® 647 (1:1000 dilution), respectively.

Data set [1] has as its system HIF-1α in orthotopic 4T1 tumors. The data set is described as follows: Intratumoral HIF-1α expression by flow cytometry. Type of data set: in vivo, female BALB/c mice. On the procedure: (§1) 4T1 cells (1 × 10^6 cells) were injected into the third mammary fat pad of female BALB/c mice (6–8-week). […] On day 28, blood samples, lungs and tumors were harvested.
For evaluating the hypoxic conditions in tumor tissues, immunofluorescent staining and flow cytometry analysis of HIF-1α were conducted. For immunofluorescent staining of HIF-1α, tumor slices were sequentially stained with anti-HIF-1 alpha recombinant rabbit monoclonal antibody (1:500 dilution) and goat anti-rabbit IgG H&L Alexa Fluor® 647 (1:1000 dilution). For flow cytometry analysis of HIF-1α, single-cell suspensions of tumor tissues were sequentially stained with anti-HIF1 alpha rabbit polyclonal antibody (1:500 dilution) and goat anti-rabbit IgG H&L Alexa Fluor® 647 (1:1000 dilution) before analysis.
In general terms: A flow cytometer gives signals particle by particle.

Another data set deals with LOX. The experiment in a line: LOX ELISA (intra-tumoral, serum, pulmonary). Type of data set: in vivo, female BALB/c mice. Set-up: Pulmonary LOX: unit not given beside the values; Intratumoral LOX / Systemic LOX: unit not given here. The following applies: for Systemic LOX: serum. On the procedure: as §1
To explore the “seed-soil” crosstalk, the serum, intra-tumoral, and pulmonary concentration of LOX was determined using enzyme-linked immunosorbent assay kits (CSB-EL013041MO, CUSABIO, https://www.cusabio.com/) according to the manufacturer’s instructions. The serum, intra-tumoral, and pulmonary concentration of TGF-β was determined using mouse TGF-β ELISA Kit (Cat No.: HB1328-Mu). The formation of PMN was investigated through lung slices subjected to immunofluorescent staining of LOX, E-cadherin, and S100A8. For immunofluorescent staining of E-cadherin, Lung slices were stained with CoraLite® Plus 647 anti-mouse CD324 (E-cadherin, 1:300 dilution). For immunofluorescent staining of LOX and S100A8, Lung slices were separately stained with anti-LOX recombinant rabbit monoclonal antibody (1:500 dilution) or S100-A8 / MRP8 rabbit pAb (1:500 dilution), followed by staining with goat anti-rabbit IgG H&L Alexa Fluor® 647 (1:1000 dilution), respectively. Single-cell suspensions of lungs were analyzed using flow cytometry to assess BMDC (CD11b^+Gr1^+) with PE anti-mouse/human CD11b antibody (1:300 dilution) and FITC anti-mouse Ly-6G/Ly-6C (Gr-1) antibody (1:300 dilution). Chemokine concentrations in lungs were determined using a mouse CXCL12 ELISA kit.
A general note: ELISA stands for enzyme-linked immunosorbent assay.

A further data set is described as follows: ζ-potential (Zetasizer). Type of data set: physicochemical. The following applies: Malvern Zetasizer Nano ZS90; mean ± SD. As for the experimental part:
The average molecular weight (Mw) and polydispersity (PDI) of the HPMA copolymer conjugates were determined by gel permeation chromatography (GPC) on an AKTA purifier equipment with a Superose 6 10/300 GL analytical column (GE Healthcare, USA) and a differential refraction detector (KNAUER, 2300, Germany). Hydrodynamic sizes and zeta potentials were determined using a Malvern Zetasizer Nano ZS90 equipment (Malvern Instruments Ltd, Malvern, UK). The contents of BS, CM1, and CM2 were determined using a bicinchoninic acid (BCA) protein assay. The PS concentration was determined by ultraviolet-visible (UV-Vis) spectroscopy at its characteristic absorbance peak (660 nm).

Where [2] appears, read: i.v. days 7, 14, 21 (5 mg/kg BS equivalence; P-CM2 24 h later), analysis day 28, mouse 1 of 5.

On to LGASWHRPDKCCLGYQKRPLPA [Free BS], for which the “Wound healing rate (%)” value in the data set with 4T1 cells was 89.21% and 80.06% and 77.11%. Besides, the “Relative fluorescence intensity of MMP-9 in tumor tissues” value in the data set on MMP-9 and TGF-β (replicate 1) amounted to 143.238; with MMP-9 and TGF-β (replicate 2), 142.904; with MMP-9 and TGF-β (replicate 3), 138.899; with MMP-9 and TGF-β (replicate 4) it was 132.502; in the data set on MMP-9 and TGF-β (replicate 5), 136.888. Also, the “Relative fluorescence intensity of TGF-β in tumor tissues” value in the data set with MMP-9 and TGF-β (replicate 1) is listed as 172.974; in the data set on MMP-9 and TGF-β (replicate 2) it was 152.446; in the data set with MMP-9 and TGF-β (replicate 3) it was 165.051; in the data set on MMP-9 and TGF-β (replicate 4), 164.828; with MMP-9 and TGF-β (replicate 5) it was 159.609. In addition, the “intratumoral HIF-1α expression, flow cytometry (Fig. 6c)” value in data set [1] (setting [2]) is given as 1107.6; in data set [1] (same, mouse 2 of 5), 915.453; in data set [1] (same, mouse 3 of 5), 924.512; in data set [1] (same, mouse 4 of 5), 898.316; in data set [1] (same, mouse 5 of 5) it was 847.852. Also, the “Intratumoral LOX” value with LOX (replicate 1) worked out at 4.19; with LOX (replicate 2), 4.18; in the data set with LOX (replicate 3), 5.17; in the data set with LOX (replicate 4) it was 5.44; in the data set on LOX (replicate 5), 4.81. For the same substance, the “Pulmonary LOX” value in the data set on LOX (replicate 1) worked out at 254.76; with LOX (replicate 2) it was 210.31; in the data set with LOX (replicate 3), 211.1; in the data set on LOX (replicate 4), 280.17; with LOX (replicate 5), 276.43. For the same substance, the “Systemic LOX” value is 127.4 in the data set on LOX (replicate 1); 132.76 in the data set on LOX (replicate 2); 133.61 in the data set on LOX (replicate 3); 151.3 in the data set with LOX (replicate 4); 147.4 in the data set on LOX (replicate 5).
Turning to “P-BS: HPMA copolymer-BS conjugate, ~6 BS grafts per polymer (LGASWHRPDKCCLGYQKRPLPA; not fully specified (residues 11, 12); also: about 6 peptides grafted on HPMA copolymer via cysteine-maleimide thioether links)”, the ζ-potential in the data set “ζ-potential (Zetasizer)” is recorded as -15.53±1.45 mV. Moreover, the “Wound healing rate (%)” value in the data set on 4T1 cells was 50.0872% and 55.1712% and 60.2636%. Also, the “Relative fluorescence intensity of MMP-9 in tumor tissues” value in the data set with MMP-9 and TGF-β (replicate 1) was 108.085; in the data set on MMP-9 and TGF-β (replicate 2) it was 120.005; in the data set with MMP-9 and TGF-β (replicate 3), 113.377; in the data set with MMP-9 and TGF-β (replicate 4) it was 115.997; with MMP-9 and TGF-β (replicate 5), 97.611. Moreover, the “Relative fluorescence intensity of TGF-β in tumor tissues” value in the data set with MMP-9 and TGF-β (replicate 1) stood at 144.596; in the data set with MMP-9 and TGF-β (replicate 2), 130.014; in the data set with MMP-9 and TGF-β (replicate 3), 139.806; with MMP-9 and TGF-β (replicate 4) it was 146.777; in the data set on MMP-9 and TGF-β (replicate 5) it was 131.749. The “intratumoral HIF-1α expression, flow cytometry (Fig. 6c)” value in data set [1] (setting [2]) was 747.043; in data set [1] (same, mouse 2 of 5), 870.276; in data set [1] (same, mouse 3 of 5), 640.882; in data set [1] (same, mouse 4 of 5), 534.456; in data set [1] (same, mouse 5 of 5) it was 521.955. In addition, the “Intratumoral LOX” value in the data set with LOX (replicate 1) is 3.43; with LOX (replicate 2), 2.08; with LOX (replicate 3), 1.87; in the data set with LOX (replicate 4) it was 2.69; in the data set with LOX (replicate 5), 2.96. Moreover, the “Pulmonary LOX” value is 195.4 in the data set on LOX (replicate 1); 174.61 in the data set with LOX (replicate 2); 154.51 with LOX (replicate 3); 156.3 with LOX (replicate 4); 144.2 in the data set with LOX (replicate 5). Further, the “Systemic LOX” value with LOX (replicate 1) came out at 76.42; with LOX (replicate 2), 77.13; in the data set with LOX (replicate 3), 91.2; in the data set on LOX (replicate 4), 85.1; with LOX (replicate 5), 105.1.
As to “P-CM2-Cy3: Cy3-labeled P-CM2 (C(HPMA copolymer)YGGEVSALEKEVSALEKKNSALEKEVSALEKEVSALEK; also: Cy3 label on conjugate, position not given here)”, the ζ-potential in “ζ-potential (Zetasizer)” is listed as -9.21±0.67 mV.

The record behind these values is article PMC10980815, “Cell surface patching via CXCR4-targeted nanothreads for cancer metastasis inhibition” (Nature Communications, 2024).
